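Briefly, cells in 96-well plates were exposed to five compound concentrations for 48 h, and endpoints were estimated by linear interpolation. GI50 marks 50% less growth. TGI: total growth inhibition.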
Assays:
Assay in all cases: NCI anticancer screen, dose series, 48 h
[1] = test system: A498 renal
[2] = test system: ACHN renal
[3] = test system: BT-549 breast
[4] = test system: CCRF-CEM leukemia
[5] = test system: COLO 205 colon
[6] = test system: HCC-2998 colon
[7] = test system: HCT-116 colon
[8] = test system: HCT-15 colon
[9] = test system: HL-60(TB) leukemia
[10] = test system: HOP-62 NSCLC
[11] = test system: HOP-92 NSCLC
[12] = test system: HS 578T breast
[13] = test system: IGROV1 ovarian
[14] = test system: K-562 leukemia
[15] = test system: MALME-3M melanoma
[16] = test system: MDA-MB-231 breast
[17] = test system: MOLT-4 leukemia
[18] = test system: NCI-H23 lung
[19] = test system: NCI-H522 lung
[20] = test system: NCI/ADR-RES ovarian
[21] = test system: OVCAR-3 ovarian
[22] = test system: OVCAR-4 ovarian
[23] = test system: OVCAR-5 ovarian
[24] = test system: OVCAR-8 ovarian
[25] = test system: RPMI-8226 leukemia
[26] = test system: RXF 393 renal
[27] = test system: SF-268 CNS
[28] = test system: SF-295 CNS
[29] = test system: SK-MEL-2 melanoma
[30] = test system: SK-MEL-5 melanoma
[31] = test system: SN12C renal
[32] = test system: SNB-19 CNS
[33] = test system: SNB-75 CNS
[34] = test system: SR leukemia
[35] = test system: SW-620 colon
[36] = test system: T-47D breast
[37] = test system: TK-10 renal
[38] = test system: U251 CNS
[39] = test system: UACC-257 melanoma
[40] = test system: UACC-62 melanoma
[41] = test system: 786-0 renal
[42] = test system: A549 NSCLC
[43] = test system: CAKI-1 renal
[44] = test system: DU-145 prostate
[45] = test system: EKVX NSCLC
[46] = test system: HT29 colon
[47] = test system: KM12 colon
[48] = test system: LOX IMVI melanoma
[49] = test system: M14 melanoma
[50] = test system: MCF7 breast
[51] = test system: MDA-MB-435
[52] = test system: NCI-H226 lung
[53] = test system: NCI-H460 lung
[54] = test system: PC-3 prostate
[55] = test system: SF-539 CNS
[56] = test system: SK-MEL-28 melanoma
[57] = test system: SK-OV-3 ovarian
[58] = test system: UO-31 renal

Structure (SMILES): FC(F)(F)c1ccc(-c2nc(-c3nc4cc(Cl)c(Cl)cc4[nH]3)c3ccccn23)cc1
- GI50 [1]: 4580 nM
- TGI [1]: 79100 nM
- GI50 [2]: 3900 nM
- TGI [2]: 28500 nM
- GI50 [3]: 8690 nM
- TGI [3]: > 100000 nM
- GI50 [4]: > 100000 nM
- TGI [4]: > 100000 nM
- GI50 [5]: > 100000 nM
- TGI [5]: > 100000 nM
- GI50 [6]: > 100000 nM
- TGI [6]: > 100000 nM
- GI50 [7]: 2920 nM
- TGI [7]: > 100000 nM
- GI50 [8]: 30500 nM
- TGI [8]: > 100000 nM
- GI50 [9]: > 100000 nM
- TGI [9]: > 100000 nM
- GI50 [10]: 3040 nM
- TGI [10]: 16300 nM
- GI50 [11]: 2970 nM
- TGI [11]: 28700 nM
- GI50 [12]: 3990 nM
- TGI [12]: > 100000 nM
- GI50 [13]: 16100 nM
- TGI [13]: > 100000 nM
- GI50 [14]: > 100000 nM
- TGI [14]: > 100000 nM
- GI50 [15]: 3560 nM
- TGI [15]: > 100000 nM
- GI50 [16]: 2490 nM
- TGI [16]: > 100000 nM
- GI50 [17]: > 100000 nM
- TGI [17]: > 100000 nM
- GI50 [18]: 6570 nM
- TGI [18]: > 100000 nM
- GI50 [19]: 10600 nM
- TGI [19]: > 100000 nM
- GI50 [20]: 6100 nM
- TGI [20]: > 100000 nM
- GI50 [21]: 3740 nM
- TGI [21]: > 100000 nM
- GI50 [22]: 1870 nM
- TGI [22]: 5410 nM
- GI50 [23]: > 100000 nM
- TGI [23]: > 100000 nM
- GI50 [24]: 6610 nM
- TGI [24]: > 100000 nM
- GI50 [25]: > 100000 nM
- TGI [25]: > 100000 nM
- GI50 [26]: 2260 nM
- TGI [26]: 5990 nM
- GI50 [27]: 4190 nM
- TGI [27]: > 100000 nM
- GI50 [28]: 3900 nM
- TGI [28]: > 100000 nM
- GI50 [29]: 9490 nM
- TGI [29]: 52200 nM
- GI50 [30]: 4200 nM
- TGI [30]: > 100000 nM
- GI50 [31]: > 100000 nM
- TGI [31]: > 100000 nM
- GI50 [32]: 6880 nM
- TGI [32]: > 100000 nM
- GI50 [33]: 1450 nM
- TGI [33]: 4300 nM
- GI50 [34]: > 100000 nM
- TGI [34]: > 100000 nM
- GI50 [35]: > 100000 nM
- TGI [35]: > 100000 nM
- GI50 [36]: 4060 nM
- TGI [36]: > 100000 nM
- GI50 [37]: 8150 nM
- TGI [37]: > 100000 nM
- GI50 [38]: 3130 nM
- TGI [38]: > 100000 nM
- GI50 [39]: > 100000 nM
- TGI [39]: > 100000 nM
- GI50 [40]: 15600 nM
- TGI [40]: > 100000 nM

Structure (SMILES): COc1ccc2c(c1)C(=O)c1c-2n(CCCN)c(=O)c2ccccc12
- GI50 [41]: 19.6 nM
- TGI [41]: 310 nM
- GI50 [1]: 836 nM
- TGI [1]: 2210 nM
- GI50 [42]: < 10 nM
- TGI [42]: 68.9 nM
- GI50 [2]: < 13.4 nM
- TGI [2]: 40.8 nM
- GI50 [3]: 820 nM
- TGI [3]: 2630 nM
- GI50 [43]: < 46.8 nM
- TGI [43]: 251 nM
- GI50 [4]: < 12.9 nM
- TGI [4]: < 35.6 nM
- GI50 [5]: < 31.8 nM
- TGI [5]: 807 nM
- GI50 [44]: 17.9 nM
- TGI [44]: 293 nM
- GI50 [45]: 196 nM
- TGI [45]: 1830 nM
- GI50 [6]: 164 nM
- TGI [6]: 1180 nM
- GI50 [7]: < 11.5 nM
- TGI [7]: 148 nM
- GI50 [8]: 17.9 nM
- TGI [8]: 265 nM
- GI50 [9]: < 10 nM
- GI50 [10]: < 15.2 nM
- TGI [10]: 94.2 nM
- GI50 [11]: 181 nM
- TGI [11]: 1430 nM
- GI50 [12]: 649 nM
- TGI [12]: 3090 nM
- GI50 [46]: < 29.8 nM
- TGI [46]: 188 nM
- GI50 [13]: < 13.8 nM
- TGI [13]: 689 nM
- GI50 [14]: < 10 nM
- TGI [14]: 187 nM
- GI50 [47]: 14.4 nM
- TGI [47]: 78.4 nM
- GI50 [48]: 10.2 nM
- TGI [48]: 78.6 nM
- GI50 [49]: 95.1 nM
- TGI [49]: 1530 nM
- GI50 [15]: 31 nM
- TGI [15]: 352 nM
- GI50 [50]: < 10 nM
- TGI [50]: 1070 nM
- GI50 [16]: 70.4 nM
- TGI [16]: 240 nM
- GI50 [51]: 146 nM
- TGI [51]: 1610 nM
- GI50 [17]: < 10 nM
- TGI [17]: < 24.3 nM
- GI50 [52]: 44.1 nM
- TGI [52]: 122 nM
- GI50 [18]: 49.7 nM
- TGI [18]: 1020 nM
- GI50 [53]: < 10 nM
- TGI [53]: 40.2 nM
- GI50 [19]: 12.3 nM
- TGI [19]: 505 nM
- GI50 [20]: 99.2 nM
- TGI [20]: 1950 nM
- GI50 [21]: 95.7 nM
- TGI [21]: 798 nM
- GI50 [22]: 133 nM
- TGI [22]: 1610 nM
- GI50 [23]: 142 nM
- TGI [23]: 1180 nM
- GI50 [24]: 11.3 nM
- TGI [24]: 162 nM
- GI50 [54]: 206 nM
- TGI [54]: 1260 nM
- GI50 [25]: < 11.4 nM
- TGI [25]: 31.6 nM
- GI50 [26]: 137 nM
- TGI [26]: 910 nM
- GI50 [27]: 45 nM
- TGI [27]: 1090 nM
- GI50 [28]: 15 nM
- TGI [28]: 657 nM
- GI50 [55]: 60.9 nM
- TGI [55]: 646 nM
- GI50 [29]: 820 nM
- TGI [29]: 2670 nM
- GI50 [56]: 459 nM
- TGI [56]: 1890 nM
- GI50 [30]: 58.6 nM
- TGI [30]: 477 nM
- GI50 [57]: < 20.2 nM
- TGI [57]: 65.2 nM
- GI50 [31]: < 16 nM
- TGI [31]: 118 nM
- GI50 [32]: < 19.8 nM
- TGI [32]: 105 nM
- GI50 [33]: 15.1 nM
- TGI [33]: 1540 nM
- GI50 [35]: < 10 nM
- TGI [35]: 1140 nM
- GI50 [36]: < 21.8 nM
- TGI [36]: 109 nM
- GI50 [37]: 116 nM
- TGI [37]: 980 nM
- GI50 [38]: < 17.3 nM
- TGI [38]: 271 nM
- GI50 [39]: 383 nM
- TGI [39]: 2070 nM
- GI50 [40]: 166 nM
- TGI [40]: 1210 nM
- GI50 [58]: 41.7 nM
- TGI [58]: 486 nM

Reference: PubChem BioAssay (NCI)
